For one series, the system named is LNCaP tumor. Set-up: species or system Balb/c mice. As to conditions: mouse, in vivo. How it is done: DATA.QS.KuE was labeled with ^68Ga and tested in vivo on LNCaP tumor-carrying Balb/c mice. […] The selectivity of binding was determined by means of competitive co-injection of the PSMA inhibitor PMPA. […] FIGS. 10a and 10b show the maximum-intensity projections from μPET studies with [^68Ga]-PSMA-11 and, respectively, [^68Ga]-DATA.QS.KuE in LNCaP tumor-carrying Balb/c. FIGS. 11a and 11b Showtime-activity curves of [^68Ga]-PSMA-11 and, respectively, [^68Ga]-DATA.QS.KuE. […] In the case of treatment with highly ionizing radionuclides, for example ^177Lu, rather than ^68Ga, DATA.QS.KuE enables a crucial reduction in nephrotoxicity.

A further series deals with LNCaP cells. Nature of the series: CellTiter Blue cytotoxicity assay. As to conditions: for IC50: 72 hours incubation, read-out: IC50 (cytotoxic action in vitro). Type of series: cell-based. How it is done:
In a CellTiter Blue assay, LNCaP cells were incubated with the substance to be studied for 72 hours, and then the IC50 of the compound was determined.
Background: Resazurin is reduced to fluorescent resorufin, in cell work by metabolically active cells.

A further series addresses T1, PSMA (Homo sapiens, UniProt Q04609).
T1 construct: incubated in the wells with the LNCaP cells for 45 min; endogenous in cells; host or cells: LNCaP cells
Nature of the series: Cell-based competitive PSMA binding assay on LNCaP cells against reference 68Ga[Ga]PSMA-10. The protocol:
By means of a cell-based assay, the affinity of the target vector-linker units QS.KuE, QS.K.EuE and KuE with a lipophilic linker—analogously to PSMA-617—and the affinity of the substructures NH2.DOTAGA.617.KuE and NH2-DOTAGA.QS.KuE was determined. In addition, the PSMA affinity of the structure MMAE.ValCit.QS.617.KuE which is preferred in accordance with the invention (see scheme 30) was determined.
For the essay, LNCaP cells were pipetted into multiwell plates (Merck Millipore Multiscreen™). The compounds to be analyzed were each admixed with a defined amount or concentration of the reference compound ^68Ga[Ga]PSMA-10 with a known Kd value and incubated in the wells with the LNCaP cells for 45 min. After repeated washing, the cell-bound activity was determined.
In order to determine non-specific binding, all compounds were additionally admixed with an excess of the PSMA inhibitor 2-PMPA (2-(phosphonomethyl)-[…]) and subjected to the same LNCaP assay—as described above.

Structures are written as SMILES. Where two headings read alike, the source gives them in different places. Non-standard residues stand in square brackets, D forms with d. Residues, ends and D or L forms follow the SMILES beside them. *: point of attachment. Dolaproine = CO[C@@H]([C@@H]1CCCN1)[C@@H](C)C(=O)O; Dil = CC[C@H](C)[C@H](NC)[C@@H](CC(=O)O)OC; X1 = C[C@@H](N*)[C@@H](O)c1ccccc1; NMeV = CN[C@H](C(=O)O)C(C)C

T1 sequence (Q04609 whole entry): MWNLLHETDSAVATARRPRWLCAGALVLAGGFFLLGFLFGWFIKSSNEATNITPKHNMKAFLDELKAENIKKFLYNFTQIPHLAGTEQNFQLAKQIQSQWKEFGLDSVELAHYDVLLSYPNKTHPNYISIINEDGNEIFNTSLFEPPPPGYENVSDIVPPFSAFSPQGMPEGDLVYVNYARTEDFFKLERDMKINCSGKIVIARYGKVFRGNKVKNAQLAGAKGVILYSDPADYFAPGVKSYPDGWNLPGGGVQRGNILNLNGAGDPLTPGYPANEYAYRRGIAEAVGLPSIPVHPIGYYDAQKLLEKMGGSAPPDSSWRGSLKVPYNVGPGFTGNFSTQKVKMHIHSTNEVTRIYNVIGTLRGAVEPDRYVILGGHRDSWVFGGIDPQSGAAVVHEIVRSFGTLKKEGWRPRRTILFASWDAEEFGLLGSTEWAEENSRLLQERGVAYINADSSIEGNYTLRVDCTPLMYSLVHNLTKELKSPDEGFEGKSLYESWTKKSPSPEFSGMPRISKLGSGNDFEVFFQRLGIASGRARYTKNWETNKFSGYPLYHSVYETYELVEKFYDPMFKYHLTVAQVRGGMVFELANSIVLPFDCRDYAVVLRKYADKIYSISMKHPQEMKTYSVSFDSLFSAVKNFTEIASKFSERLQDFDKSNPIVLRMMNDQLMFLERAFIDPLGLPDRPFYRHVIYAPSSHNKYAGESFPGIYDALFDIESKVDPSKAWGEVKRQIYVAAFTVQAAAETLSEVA

For `CN(CC(=O)O)C1(CCCCC(=O)NCCNc2c(NCCCC[C@H](NC(=O)N[C@@H](CCC(=O)O)C(=O)O)C(=O)O)c(=O)c2=O)CN(CC(=O)O)CCN(CC(=O)O)C1` [DATA.QS.KuE], in the series on LNCaP tumor, the “kidney exposure/dose by comparison with PSMA-11” value is reported as “considerably lower” and the “tumor enrichment by comparison with PSMA-11” value is given as “approximately the same”.
A word on the IC50: it is the midpoint of a concentration-inhibition curve. Regarding `CC[C@H](C)[C@@H]([C@@H](CC(=O)N1CCC[C@H]1[C@H](OC)[C@@H](C)C(=O)N[C@H](C)[C@@H](O)c1ccccc1)OC)N(C)C(=O)[C@@H](NC(=O)[C@@H](NC)C(C)C)C(C)C` [MMAE, Monomethyl-auristatin E, reference compound] (H-[NMeV]V[Dil][Dolaproine]-X1), the IC50 with LNCaP cells (Homo sapiens) came out at 0.29 ± 0.12 nM.
A word on the Ki: it is the dissociation constant of the complex between target and ligand, obtained from inhibition or displacement. `CCC(C)C(C(CC(=O)N1CCCC1C(OC)C(C)C(=O)NC(C)C(O)c1ccccc1)OC)N(C)C(=O)C(NC(=O)C(C(C)C)N(C)C(=O)OCc1ccc(NC(=O)C(CCCNC(N)=O)NC(=O)C(Nc2c(NCC3CCC(C(=O)NC(Cc4ccc5ccccc5c4)C(=O)NCCCCC(NC(=O)NC(CCC(=O)O)C(=O)O)C(=O)O)CC3)c(=O)c2=O)C(C)C)cc1)C(C)C` (stereo not drawn) [MMAE.ValCit.QS.617.KuE]: the “cell cytotoxicity in vitro compared with pure active ingredient MMAE” value with LNCaP cells (72 hours) was “somewhat lower”. Also, in the series on LNCaP cells, the concentration for half-maximal inhibition (IC50) came to 32.2 ± 5.7 nM. Moreover, on PSMA, the IC50 came to 198.1 ± 1.9 nM and the Ki is 162 ± 3.3 nM.
Take `O=C(O)CCC(NC(=O)NC(CCCCNC(=O)C(Cc1ccc2ccccc2c1)NC(=O)C1CCC(CNC(=O)CN2CCN(CC(=O)O)CCN(CC(=O)O)CCN(CC(=O)O)CC2)CC1)C(=O)O)C(=O)O` (stereo not drawn) [PSMA-617, reference compound]: on PSMA (LNCaP cells, competition with 68Ga[Ga]PSMA-10, 45 min incubation, calculated from inhibition curves, read-out: Ki (PSMA binding affinities)), the Ki is 12.3 ± 3.1 nM. Also, the IC50 on PSMA (LNCaP cells, competition with 68Ga[Ga]PSMA-10, 45 min incubation, read-out: IC50 (PSMA binding affinities)) was found to be 15.1 ± 3.8 nM.
